In US6417359B1, “Pharmaceutical compositions and methods for use” (priority 1998, dated 2002):
pEC50, pIC50: −log10 of the molar value.

What was measured:
[1] = system: nicotinic receptors associated with dopamine release; assay: Dopamine release (receptor activation/inhibition); assay type: biochemical; conditions: for Emax, dopamine release: amount released relative to (S)-(−)-nicotine
Description: Determination of Receptor Activation/Inhibition and Dopamine Release
Dopamine release was measured using the techniques described in U.S. Pat. No. 5,597,919 to Dull et al. Release is expressed as a percentage of release obtained with a concentration of (S)-(−)-nicotine resulting in maximal effects. Reported EC50 values are expressed in nM, and Emax values represent the amount released relative to (S)-(−)-nicotine or tetramethylammonium ion (TMA), on a percentage basis.
Reported IC50 values are expressed in nM and represent the concentration resulting in 50% inhibition of agonist induced receptor activation. Emax values represent the amount released relative to (S)-(−)-nicotine on a percentage basis.

muscle-type receptors = muscle-type receptors (Homo sapiens, UniProt P02708+P07510+P11230+Q07001); assay: Determination of interaction with muscle receptors; assay type: cell-based; conditions: percentage of maximal activation induced by (S)-(−)-nicotine
Description: Determination of Interaction with Muscle Receptors
(§1) The determination of the interaction of the compounds with muscle receptors was carried out in accordance with the techniques described in U.S. Pat. No. 5,597,919 to Dull et al. The maximal activation for individual compounds (Emax) was determined as a percentage of the maximal activation induced by (S)-(−)-nicotine. Reported Emax values represent the amount released relative to (S)-(−)-nicotine on a percentage basis.

ganglia-type receptors = assay: Determination of interaction with ganglion receptors; assay type: cell-based; conditions: percentage of maximal activation induced by (S)-(−)-nicotine
Description: as §1, with “Determination of Interaction with Ganglion Receptors The determination” for “The determination”, “compounds with ganglionic receptors was” for “compounds with muscle receptors was”

Sequence of muscle-type receptors (P02708 whole entry): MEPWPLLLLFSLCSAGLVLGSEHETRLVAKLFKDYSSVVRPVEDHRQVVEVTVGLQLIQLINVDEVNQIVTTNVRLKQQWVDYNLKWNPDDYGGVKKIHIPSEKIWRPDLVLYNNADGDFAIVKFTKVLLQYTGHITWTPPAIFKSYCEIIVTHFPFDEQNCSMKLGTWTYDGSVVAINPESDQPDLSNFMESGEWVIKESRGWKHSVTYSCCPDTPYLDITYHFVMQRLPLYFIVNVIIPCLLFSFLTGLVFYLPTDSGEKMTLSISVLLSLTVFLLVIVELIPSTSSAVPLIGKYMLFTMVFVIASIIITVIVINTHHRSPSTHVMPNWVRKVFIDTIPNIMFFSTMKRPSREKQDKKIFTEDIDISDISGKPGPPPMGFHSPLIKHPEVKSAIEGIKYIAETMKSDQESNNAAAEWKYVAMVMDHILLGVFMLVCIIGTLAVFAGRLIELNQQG
Sequence of muscle-type receptors (P11230 24-501): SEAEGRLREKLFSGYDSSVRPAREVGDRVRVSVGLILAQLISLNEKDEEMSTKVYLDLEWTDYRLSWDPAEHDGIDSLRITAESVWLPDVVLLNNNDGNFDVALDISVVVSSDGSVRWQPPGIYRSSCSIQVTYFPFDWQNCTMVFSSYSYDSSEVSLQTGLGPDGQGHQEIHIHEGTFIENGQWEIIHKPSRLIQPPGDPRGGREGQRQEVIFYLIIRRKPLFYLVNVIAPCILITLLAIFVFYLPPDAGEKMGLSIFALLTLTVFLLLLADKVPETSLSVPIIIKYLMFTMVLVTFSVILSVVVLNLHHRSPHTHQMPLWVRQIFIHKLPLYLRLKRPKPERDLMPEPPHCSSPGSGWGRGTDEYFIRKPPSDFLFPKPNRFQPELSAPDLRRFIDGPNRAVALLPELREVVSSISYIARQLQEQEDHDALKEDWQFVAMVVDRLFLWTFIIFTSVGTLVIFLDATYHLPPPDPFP
Sequence of muscle-type receptors (P07510 23-517): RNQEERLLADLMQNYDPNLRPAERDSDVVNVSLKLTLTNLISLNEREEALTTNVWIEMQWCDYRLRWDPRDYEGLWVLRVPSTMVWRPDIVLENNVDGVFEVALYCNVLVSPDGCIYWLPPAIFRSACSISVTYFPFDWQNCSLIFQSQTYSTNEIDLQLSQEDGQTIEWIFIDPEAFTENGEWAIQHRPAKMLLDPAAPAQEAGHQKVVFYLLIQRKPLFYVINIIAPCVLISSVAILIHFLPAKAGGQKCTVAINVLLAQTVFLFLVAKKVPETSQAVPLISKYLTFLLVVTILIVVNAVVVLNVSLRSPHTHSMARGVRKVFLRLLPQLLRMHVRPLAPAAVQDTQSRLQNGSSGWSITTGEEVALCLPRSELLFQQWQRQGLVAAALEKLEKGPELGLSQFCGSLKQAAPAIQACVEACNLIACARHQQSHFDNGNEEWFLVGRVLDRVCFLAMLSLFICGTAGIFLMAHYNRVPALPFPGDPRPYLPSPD
Sequence of muscle-type receptors (Q07001 22-517): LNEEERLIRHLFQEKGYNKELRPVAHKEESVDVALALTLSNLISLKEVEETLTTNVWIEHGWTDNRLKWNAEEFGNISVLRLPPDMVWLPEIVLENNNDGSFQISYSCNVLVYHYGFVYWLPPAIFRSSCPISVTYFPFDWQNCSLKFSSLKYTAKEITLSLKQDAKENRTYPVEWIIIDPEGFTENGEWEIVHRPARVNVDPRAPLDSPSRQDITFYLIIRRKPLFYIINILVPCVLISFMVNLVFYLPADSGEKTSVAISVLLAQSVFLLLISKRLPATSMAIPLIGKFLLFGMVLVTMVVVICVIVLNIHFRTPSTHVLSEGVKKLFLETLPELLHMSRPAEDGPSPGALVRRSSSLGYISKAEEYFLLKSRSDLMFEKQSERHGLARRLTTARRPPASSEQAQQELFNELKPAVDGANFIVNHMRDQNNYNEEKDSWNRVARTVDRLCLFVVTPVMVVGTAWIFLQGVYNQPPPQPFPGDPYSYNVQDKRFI

Row | SMILES | Emax, dopamine release [1] [%] | Emax (muscle-type receptors) [%] | Emax at ganglia-type receptors (ganglia-type receptors) [%] | pEC50 [1] | pIC50 ([1]; concentration resulting in 50% inhibition of agonist induced receptor activation)
1 | c1cncc(C2C3CC4CC(C3)CN2C4)c1 (centres unmarked) [Sample No. 1, 1-aza-2-(3-pyridyl)-tricyclo[3.3.1.1^3,7]decane] | 0 | 21 | 27 | – | –
2 | Brc1cncc(C2C3CC4CC(C3)CN2C4)c1 (centres unmarked) [Sample No. 2, 1-aza-2-[5-bromo(3-pyridyl)]tricyclo[3.3.1.1^3,7]decane] | 0 | 32 | 50 | < 4.00 | –
3 | Cl.Cl.Cl.Nc1cncc(C2C3CC4CC(C3)CN2C4)c1 (centres unmarked) [Sample No. 3, 1-aza-2-[5-amino-(3-pyridyl)]tricyclo[3.3.1.1^3,7]decane trihydrochloride] | 0 | 75 | 17 | < 4.00 | –
4 | CCOc1cncc(C2C3CC4CC(C3)CN2C4)c1 (centres unmarked) [Sample No. 4, 1-aza-2-[5-ethoxy-(3-pyridyl)]-tricyclo-[3.3.1.1^3,7]decane] | 0 | 22 | 0 | < 4.00 | 6.07
5 | CC(C)Oc1cncc(C2C3CC4CC(C3)CN2C4)c1 (centres unmarked) [Sample No. 5, 1-aza-2-[5-isopropoxy-(3-pyridyl)]tricyclo[3.3.1.1^3,7]decane] | 0 | 114 | 7 | < 4.00 | –
